Columns and labels:
[1] = Solubility evaluation in water at 25° C.; type: physicochemical; details: for solubility, amino acid-converted weight concentration / solubility, weight concentration: water, stirred for 2 days
Description: The concentration was measured by HPLC. […] Similarly, the solubility of DOPA and DOPA-Glc was measured. […] Furthermore, the solubility of DOPA and DOPA-Glc was similarly measured using water (0.5 ml) in a thermostatic tank at 25° C. […] Therefore, the samples were diluted, and solubility was measured by HPLC.

[2] = Dissolution rate evaluation in water; type: physicochemical; details: 25 ml stirring water, inside temperature 32° C., n=1
Description: Val, Ile, Leu or glycoamino acid corresponding thereto (Val-Glc, Ile-Glc, Leu-Glc) were each added to stirring water (25 ml, inside temperature 32° C.) in a hot-water bath at 35° C., and the dissolution rate was measured. As compared to Val, Ile and Leu, Val-Glc, Ile-Glc and Leu-Glc were dissolved 4-19 times faster in equal weight and 2-19 times faster in equimolar amount.

[3] = Animal evaluation: blood amino acid concentration after oral administration; type: in vivo; details: male SD rats fasted overnight
Description: Leu, Val, Ile and glycoamino acid corresponding thereto (Leu-Glc, Val-Glc, Ile-Glc) were each dissolved or suspended in distilled water to a given dose and orally administered to male 13-week-old SD rats (Japan Charles River) that was fasted overnight. Blood samples were collected from the rat tail vein before administration and 15 min, 30 min, 60 min, 90 min, 120 min after administration and partly 180 min and 300 min after administration. After separation into plasma, protein elimination and ultrafiltration with 15% sulfosalicylic acid solution was performed. The filtrate was mixed with 0.02 mmol/L hydrochloric acid at 1:1, analyzed by an amino acid analyzer (JEOL Ltd.), and blood amino acid concentration was determined.

pronase = experiment: Enzyme evaluation: liberation of leucine by pronase; type: in vitro ADME; details: 37° C., 30 min later
Description: Leu-Glc (10 mg) was dissolved in water (1 ml), pronase (0.1% aqueous solution, 100 μl) was added, and the mixture was stirred in a hot-water bath at 37° C. The mixture was diluted 10-fold with 1% aqueous phosphoric acid solution, and analyzed by HPLC.
HPLC analysis conditions were as described below.
column: […] MG (4.6×250 mm, 5 μm) column temperature: 40° C. mobile phase: A: 100 mM KH2PO4, 5 mM sodium 1-octanesulfonate (pH 2.2) B: acetonitrile eluent: A/B=9/1 isocratic flow rate: 1.5 ml/min detection: photodiode array detector measurement wavelength 210 nm injection volume: 10 μL

## N[C@@H](Cc1ccc(O)c(O)c1)C(=O)O [DOPA, 3,4-dihydroxy-L-phenylalanine, reference compound]
[1]; HPLC
  solubility, amino acid-converted weight concentration: 0.31 g/100 g water
  solubility, weight concentration: 0.31 g/100 g water

## N[C@@H](Cc1ccc(O)c(O)c1)C(=O)N[C@@H]1O[C@H](CO)[C@@H](O)[C@H](O)[C@H]1O [DOPA-Glc, N-(3,4-dihydroxy-L-phenylalanyl)-β-D-glucopyranosylamine]
[1]; water 0.5 ml, samples diluted, HPLC
  solubility as compared to that of DOPA: not less than 690 fold
[1]; water 1 ml
  solubility as compared to the corresponding amino acid: not less than 135 times
  weight concentration at which still dissolved: ≥ 93.8 g/100 g water
[1]; HPLC
  solubility, amino acid-converted weight concentration: >215 g/100 g water
  solubility, weight concentration: >392 g/100 g water

## CC[C@H](C)[C@H](N)C(=O)O [Ile, L-isoleucine, reference compound]
[2]; equal weight (Table 3)
  dissolution rate, amino acid (XXX): (285 sec)
[2]; equimolar quantity (Table 2)
  dissolution rate, amino acid (XXX): (280 sec)
[1]; HPLC
  solubility, amino acid-converted weight concentration: 4.1 g/100 g water
  solubility, weight concentration: 4.1 g/100 g water

## CC[C@H](C)[C@H](N)C(=O)N[C@@H]1O[C@H](CO)[C@@H](O)[C@H](O)[C@H]1O [Ile-Glc, N-(L-isoleucyl)-β-D-glucopyranosylamine]
[2]; equal weight (Table 3)
  dissolution rate, glycoamino acid (XXX-Glc): 15 s
[2]; equimolar quantity (Table 2)
  dissolution rate, glycoamino acid (XXX-Glc): 15 s
[3]
  blood Ile concentration: increased
[1]; HPLC
  solubility, amino acid-converted weight concentration: 14.7 g/100 g water
  solubility, weight concentration: 32.8 g/100 g water

## CC(C)C[C@H](N)C(=O)O [Leu, L-leucine, reference compound]
[2]; equal weight (Table 3)
  dissolution rate, amino acid (XXX): (330 sec)
[2]; equimolar quantity (Table 2)
  dissolution rate, amino acid (XXX): (191 sec)
[1]; HPLC
  solubility, amino acid-converted weight concentration: 2.4 g/100 g water
  solubility, weight concentration: 2.4 g/100 g water

## CC(C)C[C@H](N)C(=O)N[C@@H]1O[C@H](CO)[C@@H](O)[C@H](O)[C@H]1O [Leu-Glc, N-(L-leucyl)-β-D-glucopyranosylamine]
[2]; equal weight (Table 3)
  dissolution rate, glycoamino acid (XXX-Glc): 21 s
[2]; equimolar quantity (Table 2)
  dissolution rate, glycoamino acid (XXX-Glc): 21 s
pronase
  remaining Leu-Glc: almost disappeared
[3]
  blood Leu concentration: increased
[1]; HPLC
  solubility, amino acid-converted weight concentration: 28.3 g/100 g water
  solubility, weight concentration: 63 g/100 g water

## N[C@@H](Cc1ccc(O)cc1)C(=O)N[C@@H]1O[C@H](CO)[C@@H](O)[C@H](O)[C@H]1O [Tyr-Glc, N-(L-tyrosyl)-β-D-glucopyranosylamine]
[1]; water 1 ml
  solubility as compared to the corresponding amino acid: 178 times
[1]; HPLC
  solubility, amino acid-converted weight concentration: 8.92 g/100 g water
  solubility, weight concentration: 16.8 g/100 g water

## CC(C)[C@H](N)C(=O)O [Val, L-valine, reference compound]
[2]; equal weight (Table 3)
  dissolution rate, amino acid (XXX): (139 sec)
[2]; equimolar quantity (Table 2)
  dissolution rate, amino acid (XXX): (80 sec)
[1]; HPLC
  solubility, amino acid-converted weight concentration: 5.8 g/100 g water
  solubility, weight concentration: 5.8 g/100 g water

## CC(C)[C@H](N)C(=O)N[C@@H]1O[C@H](CO)[C@@H](O)[C@H](O)[C@H]1O [Val-Glc, N-(L-valyl)-β-D-glucopyranosylamine]
[2]; equal weight (Table 3)
  dissolution rate, glycoamino acid (XXX-Glc): 33 s
[2]; equimolar quantity (Table 2)
  dissolution rate, glycoamino acid (XXX-Glc): 33 s
[3]
  blood Val concentration: increased
[1]; HPLC
  solubility, amino acid-converted weight concentration: 14.1 g/100 g water
  solubility, weight concentration: 33.5 g/100 g water
